Measured values as given in patent US4604239A, “Antibiotics” (Eli Lilly and Company, priority 1985, dated 1986).
Several values for one entry are separate records, joined by “and”; a condition that tells them apart may be missing. Identical values can stand only once.

Test system: Staphylococcus aureus
Assay: agar-dilution MIC
Type: cell-based
Conditions: Staphylococcus aureus S13E; Table 17

Substance	MIC [µg/mL]
A41030 factor F	1

Same assay, conditions: in µg/mL

Substance	MIC
A41030 factor F	0.5 and 1

Test system: Hemophilus influenzae
Assay: agar-dilution MIC
Type: cell-based
Conditions: Haemophilus influenzae 76; Table 17

Substance	MIC [µg/mL]
A41030 factor G	32
A41030 factor F	32

Same assay, conditions: Haemophilus influenzae C.L.; Table 17

Substance	MIC [µg/mL]
A41030 factor G	32
A41030 factor F	32

Test system: Bacteroides fragilis
Assay: agar-dilution MIC
Type: cell-based
Conditions: Bacteroides fragilis 111; Table 14
Source text: (§1) The agar-dilution procedure described by the International Collaborative study (ICS) group was used to determine the minimum inhibitory concentrations (MIC's).

Substance	MIC [µg/mL]
A41030 factor G	32
A41030 factor F	32

Same assay, conditions: Bacteroides fragilis 1877; Table 14

Substance	MIC [µg/mL]
A41030 factor G	32
A41030 factor F	32

Same assay, conditions: Bacteroides fragilis 1936B; Table 14

Substance	MIC [µg/mL]
A41030 factor G	64
A41030 factor F	32

Test system: Staphylococcus epidermidis
Assay: agar-dilution MIC
Type: cell-based
Conditions: Staphylococcus epidermidis EPI1; Table 17
Source text: as §1

Substance	MIC [µg/mL]
A41030 factor G	0.5
A41030 factor F	0.25

Same assay, conditions: Staphylococcus epidermidis EPI2; Table 17

Substance	MIC [µg/mL]
A41030 factor G	0.5

Test system: Streptococcus pneumoniae
Assay: agar-dilution MIC
Type: cell-based
Conditions: Streptococcus pneumoniae Park I; Table 17
Source text: as §1

Substance	MIC [µg/mL]
A41030 factor G	2
A41030 factor F	2

Test system: Streptococcus pyogenes
Assay: agar-dilution MIC
Type: cell-based
Conditions: Streptococcus pyogenes C203; Table 17
Source text: as §1

Substance	MIC [µg/mL]
A41030 factor G	2
A41030 factor F	2

Test system: Streptococcus sp. (Group D)
Assay: agar-dilution MIC
Type: cell-based
Conditions: Streptococcus sp. Group D 9960; Table 17
Source text: as §1

Substance	MIC [µg/mL]
A41030 factor G	4
A41030 factor F	4

Same assay, conditions: Streptococcus sp. Group D X66; Table 17

Substance	MIC [µg/mL]
A41030 factor G	4
A41030 factor F	4

Test system: Bacteroides thetaiotaomicron
Assay: not given
Type: cell-based
Conditions: Bacteroides thetaiotaomicron 1438; Table 14
Source text: as §1

Substance	MIC [µg/mL]
A41030 factor G	64
A41030 factor F	64

Test system: Propionibacterium acnes
Assay: agar-dilution MIC
Type: cell-based
Conditions: Propionibacterium acnes 79; Table 14
Source text: Antibiotic A41030 factors A, B and C have also been tested and found to be active against a genus of anaerobic bacteria identified as Propionibacterium acnes.

Substance	MIC [µg/mL]
A41030 factor G	1.0
A41030 factor F	1.0

Test system: Clostridium difficile
Assay: not given
Type: cell-based
Conditions: Clostridium difficile 78; Table 16

Substance	MIC [µg/mL]
A41030 factor G	1.0
A41030 factor F	1.0

Same assay, conditions: Clostridium difficile 107B; Table 16

Substance	MIC [µg/mL]
A41030 factor G	1.0
A41030 factor F	1.0

Same assay, conditions: Clostridium difficile 111F; Table 16

Substance	MIC [µg/mL]
A41030 factor G	1.0
A41030 factor F	2

Same assay, conditions: Clostridium difficile 1153; Table 16

Substance	MIC [µg/mL]
A41030 factor G	1.0
A41030 factor F	2

Same assay, conditions: Clostridium difficile 2634; Table 16

Substance	MIC [µg/mL]
A41030 factor G	1.0
A41030 factor F	2

Same assay, conditions: Clostridium difficile 2994; Table 14

Substance	MIC [µg/mL]
A41030 factor G	2

Same assay, conditions: Clostridium difficile 3424-5B; Table 16

Substance	MIC [µg/mL]
A41030 factor G	1.0
A41030 factor F	1.0

Same assay, conditions: Clostridium difficile 3816; Table 16

Substance	MIC [µg/mL]
A41030 factor G	1.0
A41030 factor F	1.0

Same assay, conditions: Clostridium difficile 3950D; Table 16

Substance	MIC [µg/mL]
A41030 factor G	1.0

Same assay, conditions: Clostridium difficile 6890; Table 16

Substance	MIC [µg/mL]
A41030 factor G	1.0
A41030 factor F	1.0

Same assay, conditions: Clostridium difficile 8484; Table 16

Substance	MIC [µg/mL]
A41030 factor G	1.0
A41030 factor F	1.0

Same assay, conditions: Clostridium difficile A-194; Table 16

Substance	MIC [µg/mL]
A41030 factor G	1.0
A41030 factor F	1.0

Same assay, conditions: Clostridium difficile A-195; Table 16

Substance	MIC [µg/mL]
A41030 factor G	1.0
A41030 factor F	1.0

Same assay, conditions: Clostridium difficile A-196; Table 16

Substance	MIC [µg/mL]
A41030 factor G	1.0
A41030 factor F	2

Same assay, conditions: Clostridium difficile A-279; Table 16

Substance	MIC [µg/mL]
A41030 factor G	1.0
A41030 factor F	1.0

Same assay, conditions: Clostridium difficile A-280; Table 16

Substance	MIC [µg/mL]
A41030 factor F	1.0

Same assay, conditions: Clostridium difficile A-281; Table 16

Substance	MIC [µg/mL]
A41030 factor G	1.0
A41030 factor F	2

Same assay, conditions: Clostridium difficile WAL-2112; Table 16

Substance	MIC [µg/mL]
A41030 factor G	1.0
A41030 factor F	1.0

Same assay, conditions: Clostridium difficile WAL-3657; Table 16

Substance	MIC [µg/mL]
A41030 factor G	1.0
A41030 factor F	1.0

Same assay, conditions: Clostridium difficile WAL-4268; Table 16

Substance	MIC [µg/mL]
A41030 factor G	1.0
A41030 factor F	1.0

Test system: Clostridium perfringens
Assay: not given
Type: cell-based
Conditions: Clostridium perfringens 81; Table 14

Substance	MIC [µg/mL]
A41030 factor G	2
A41030 factor F	1.0

Test system: Clostridium septicum
Assay: agar-dilution MIC
Type: cell-based
Conditions: Clostridium septicum 1128; Table 14

Substance	MIC [µg/mL]
A41030 factor G	2
A41030 factor F	1.0

Test system: Eubacterium aerofaciens
Assay: agar-dilution MIC
Type: cell-based
Conditions: Eubacterium aerofaciens 1235; Table 14

Substance	MIC [µg/mL]
A41030 factor G	2
A41030 factor F	1.0

Test system: Peptococcus asaccharolyticus
Assay: agar-dilution MIC
Type: cell-based
Conditions: Peptococcus asaccharolyticus 1302; Table 14
Method: The MIC values were determined by the agar-dilution method, and are recorded in Table 15, which follows.

Substance	MIC [µg/mL]
A41030 factor G	1.0
A41030 factor F	≤ 0.25

Test system: Peptostreptococcus anaerobius
Assay: agar-dilution MIC
Type: cell-based
Conditions: Peptostreptococcus anaerobius 1428; Table 14

Substance	MIC [µg/mL]
A41030 factor G	≤ 0.5
A41030 factor F	32

Test system: Peptostreptococcus intermedius
Assay: agar-dilution MIC
Type: cell-based
Conditions: Peptostreptococcus intermedius 1264; Table 14

Substance	MIC [µg/mL]
A41030 factor G	2
A41030 factor F	1.0

Test system: Bacteroides melaninogenicus
Assay: agar-dilution MIC
Type: cell-based
Conditions: Bacteroides melaninogenicus 2736; Table 14

Substance	MIC [µg/mL]
A41030 factor G	64
A41030 factor F	1.0

Test system: Fusobacterium symbiosum
Assay: agar-dilution MIC
Type: cell-based
Conditions: Fusobacterium symbiosum 1470; Table 14

Substance	MIC [µg/mL]
A41030 factor G	2
A41030 factor F	1.0

Test system: Fusobacterium necrophorum
Assay: agar-dilution MIC
Type: cell-based
Conditions: Fusobacterium necrophorum 6054A; Table 14

Substance	MIC [µg/mL]
A41030 factor G	2
A41030 factor F	1.0

Test system: Klebsiella pneumoniae
Assay: agar-dilution MIC
Type: cell-based
Conditions: Klebsiella pneumoniae X26; Table 17
Source text: The results after reading the which follows.

Substance	MIC [µg/mL]
A41030 factor G	64

Test system: S. pneumoniae
Assay: experimental bacterial infection in mice
Type: in vivo
Conditions: two doses subcutaneously
Method: (§2) All of the A41030 factors tested have shown in vivo antimicrobial activity against experimental bacterial infections. When two doses of test compound were administered subcutaneously to mice in illustrative infections, the activity observed is measured as an ED50 value [effective dose in mg./kg. to protect fifty percent of the test animals: See Warren Wick, et al., J. Bacteriol. 81, 233-235 (1961)].

Substance	ED50 [mg/kg]
A41030 factor F	> 5.0

Test system: Staph. aureus
Assay: experimental bacterial infection in mice
Type: in vivo
Conditions: two doses subcutaneously
Method: as §2

Substance	ED50 [mg/kg]
A41030 factor F	< 0.31

Test system: S. pyogenes
Assay: experimental bacterial infection in mice
Type: in vivo
Conditions: S. pyogenes infection in mice; two doses subcutaneously

Substance	ED50 [mg/kg]
A41030 factor F	> 5.0

Test system: not listed separately
Assay: electrometric titration
Type: physicochemical
Conditions: electrometric titration in 66% dimethylformamide in water
Source text: Antibiotic A41030 factor A is a white, crystalline solid.

Substance	possibly additional pKa's
A41030 factor G	> 10.5
A41030 factor F	> 10

Test system: not listed separately
Assay: solubility
Type: physicochemical
Conditions: not given

Substance	solubility (solvents)
A41030 factor G	soluble in the same solvents as is factor A
A41030 factor F	soluble in the same solvents as factor A

Test system: Bacteroides corrodens
Assay: agar-dilution MIC
Type: cell-based
Conditions: Bacteroides corrodens 1874; Table 14

Substance	MIC [µg/mL]
A41030 factor G	32
A41030 factor F	32

Test system: Bacteroides vulgatis
Assay: agar-dilution MIC
Type: cell-based
Conditions: Bacteroides vulgatis 1211; Table 14

Substance	MIC [µg/mL]
A41030 factor G	64
A41030 factor F	32

Test system: Peptococcus prevoti
Assay: agar-dilution MIC
Type: cell-based
Conditions: Peptococcus prevoti 1281; Table 14

Substance	MIC [µg/mL]
A41030 factor G	2
A41030 factor F	32
